One block for each compound: values may come before it.
Assays:
[1] = Kinetics of reaction with sodium methoxide in methanol (HPLC); assay type: physicochemical; conditions: reaction with excess NaOMe in methanol; disappearance monitored by HPLC
Description: This Example illustrates the kinetics of reaction of O^2-(2,4-dinitrophenyl) 1-(N,N-diethylamino)diazen-1-ium-1,2-diolate with sodium methoxide in methanol. The kinetics of this reaction show the rate of conversion of O^2-(2,4-dinitrophenyl) 1-(N,N-diethylamino)diazen-1-ium-1,2-diolate to 1-(N,N-diethylamino)diazen-1-ium-1,2-diolate ion in alkaline or nucleophilic environments.
An excess of NaOMe was used in the reactions; aliquots were collected at intervals and quenched with 0.1 N HCl in methanol. […] This was determined by plotting log[O^2-(2,4-dinitrophenyl) 1-(N,N-diethylamino)diazen-1-ium-1,2-diolate] vs. time to find kobs′ at four different concentrations of NaOMe.

[2] = system: glutathione S-transferase; experiment: Glutathione S-transferase kinetics (UV absorbance at 380 nm); assay type: biochemical; conditions: 25° C., 0.1 M phosphate buffer pH 7.4, enzyme 0.7 μg/ml, glutathione 1.4 mM, diazeniumdiolate 50–100 μM
Description: The following examples further illustrate the present invention and, of course, should not be construed as in any way limiting its scope. With respect to the following examples, NO was obtained from Matheson Gas Products (Montgomeryville, Pa.), β- and α-glycosidases and porcine liver esterase were obtained from Sigma Chemical Co. (St, Louis, Mo.), polyurethane (Tecoflex) was obtained from Thermedics Inc. (Woburn, Mass.), and glucose and mannose were obtained from Aldrich Chemical Co. (Milwaukee, Wis.). Proton NMR spectra were recorded with a 300 MHz Varian Unity Plus or a Varian XL-200 NMR spectrometer. Spectra were obtained in deuterochloroform for covalent compounds and in D2O for salts. Chemical shifts are reported in parts per million (ppm) downfield from TMS. Low and high resolution mass spectral (MS) measurements were carried out on a VG-Micromass Model 7070 spectrometer. Unless otherwise indicated, MS data were collected in the electron impact mode with sample introduction via direct probe. Ultraviolet (UV) spectra were run as solutions in water or 0.01 M NaOH on an HP 8451A Diode Array spectrophotometer. Glutathione S-transferase kinetics were monitored by measuring the change in UV absorbance at 380 nm with a Beckman DU 640 spectrophotometer. Chemiluminescence measurements were done on a Thermal Energy Analyzer Model 502A instrument (Thermedics, Inc., Woburn, Mass.). […]

[3] = NO release in the presence or absence of glutathione, chemiluminescence; conditions: 37° C.
Method: This Example illustrates the regeneration of NO from O^2-(2,4-dinitrophenyl) 1-(N,N-diethylamino)diazen-1-ium-1,2-diolate in the presence, but not the absence, of glutathione.
A solution containing 1 mM glutathione (GSH) in 10 mM phosphate buffer was degassed by purging with argon for 10 min, whereupon a 3 ml aliquot was mixed with 3 μl of a dioxane solution that was 2 mM in O^2-(2,4-dinitrophenyl) 1-(N,N-diethylamino)diazen-1-ium-1,2-diolate. NO release was monitored by chemiluminescence while the mixture was held at 37° C. […] Total NO generation during the first 112 min was approximately 9 nmol. Assuming that […] of NO is generated per mol of O^2-(2,4-dinitrophenyl) 1-(N,N-diethylamino)diazen-1-ium-1,2-diolate, this 9 nmol corresponds to roughly 75% of the theoretical yield.
The nucleophilic glutathione reacted with the O^2-(2,4-dinitrophenyl) 1-(N,N-diethylamino)diazen-1-ium-1,2-diolate to produce NO according to the equation shown below.

[4] = system: glutathione S-transferase (GST); conditions: FIG. 2
[5] = Cleavage of O2-glucopyranosyl diazeniumdiolate to DEA/NO anion and NO as a function of pH; assay type: physicochemical
porcine liver esterase = experiment: Decay in the presence of porcine liver esterase; assay type: in vitro ADME; conditions: 25° C., phosphate buffer pH 7.4, porcine liver esterase suspension added
Method: This example describes the determination of the halflife of the Compound produced in Example 24 in the absence and presence of porcine liver esterase at 25° C. and pH 7.4.
A 0.009 M ethanolic stock solution of O2—[S-acetyl-(2-mercaptoethyl)]1-[(2-carboxylato)pyrrolidin-1-yl]diazen-1-ium-1,2-diolate [S-acetyl-(2-mercapto-ethyl)]ester was prepared. The decay of this compound was monitored at 25° C. as 1.5×10^−4 M solutions in a 4 ml quartz cuvette containing 3 ml of phosphate buffer (pH 7.4) and […] of stock solution. The decay of the 232 nm chromophore was monitored on the ultraviolet spectrophotometer. The halflife was estimated as 3.2 hr.
A second set of experiments was carried out using the above parameters to measure the decay after addition of 5 ml of porcine liver esterase suspension. The half-life for the esterase reaction was 8 min at 25° C.

[6] = 1 mM GSH in 10 mM phosphate buffer

SMILES: CCN(CC)[N+]([O-])=NOc1ccc([N+](=O)[O-])cc1[N+](=O)[O-] [Example 1, O^2-(2,4-dinitrophenyl) 1-(N,N-diethylamino)diazen-1-ium-1,2-diolate]
second-order rate constant [1]: 0.131 M⁻¹ s⁻¹
Km [2]: 46.3 µM
Vmax [2]: 0.89 µM/min
time NO generation continued at readily detectable levels [3, 6]: approximately 100 minutes
time of peak nitric oxide generation after reaction was initiated [3, 6]: approximately 15 minutes
total NO generation during the first 112 min ([3]; 1 mM GSH in 10 mM phosphate buffer, 3 μl of 2 mM solution in 3 ml): approximately 9 nmol
NO generated as share of the theoretical yield ([3]; 1 mM GSH, first 112 min): roughly 75%
NO generation with exclusion of the GSH ([3]; 10 mM phosphate buffer, no GSH): no NO generation was observed

SMILES: O=[N+]([O-])c1ccc(ON=[N+]([O-])N2CCCC2)c([N+](=O)[O-])c1 [Example 8, O^2-(2,4-dinitrophenyl) 1-(pyrrolidin-1-yl)diazen-1-ium-1,2-diolate]
relative NO release rate versus time with GST [4]: catalysis of NO release

SMILES: O=C([O-])C1CCCN1[N+]([O-])=N[O-].[Na+].[Na+] (stereo not shown) [Example 19, disodium 1-[(2-carboxylato)pyrrolidin-1-yl]diazen-1-ium-1,2-diolate]
melting point: 250 °C (dec.)

Now from value to compound:

cleavage to DEA/NO anion, then to NO ([5]; pH 3): only extremely slowly
cleavage to DEA/NO anion, then to NO ([5]; pH 13): extremely rapidly
SMILES: CCN(CC)[N+]([O-])=NOC1O[C@H](CO)[C@@H](O)[C@H](O)[C@H]1O (stereo partly shown) [Example 31, O^2-glucopyranosyl 1-(N,N-diethylamino)diazen-1-ium-1,2-diolate]

half-life for the esterase reaction (porcine liver esterase): 8 min
SMILES: CC(=O)SCCON=[N+]([O-])N1CCCC1C(=O)OCCSC(C)=O (stereo not shown) [Example 24, O^2—[S-acetyl-(2-mercaptoethyl)]1-[(2-carboxylato)pyrrolidin-1-yl]diazen-1-ium-1,2-diolate [S-acetyl-(2-mercaptoethyl)]ester]
